Data: patent US12312370B2, “Immunoproteasome inhibitors” (Principia Biopharma Inc., priority 2017, dated 2025)

Legend:
[1] = biological target: constitutive proteasome β5c unit (Homo sapiens, UniProt P28074); experiment: Caliper-based proteasome enzymatic activity assay, β5c; format: biochemical; conditions: human recombinant constitutive proteasome 0.3 nM, FAM-labeled peptide substrate 1 μM, rt 3 h; read-out: β5c subunit IC50
[2] = biological target: immunoproteasome LMP7/B5i subunit (Homo sapiens, UniProt P28062); experiment: Caliper-based proteasome enzymatic activity assay, LMP7; format: biochemical; conditions: human recombinant immunoproteasome 0.3 nM, FAM-labeled peptide substrate 1 μM, rt 3 h; read-out: LMP7 subunit IC50

Row | IC50 [1] | IC50 [2] | SMILES
1 | 3.3 nM | 4.3 nM | C=CS(=O)(=O)N(C)c1cccc(C[C@H](NC(=O)c2cc(Cl)ccc2Cl)C(=O)N[C@@H](Cc2ccccc2)B(O)O)c1 [Example 16, ((R)-1-((S)-2-(2,5-dichlorobenzamido)-3-(3-(N-methylvinylsulfonamido)phenyl)propanamido)-2-phenylethyl)boronic acid]
2 | 2420 nM | 2.4 nM | C[C@@H]1CN(C(C)(C)C=C(C#N)C(=O)N2CCCC[C@@H](OC(=O)N[C@@H](Cc3ccccc3)B(O)O)C2)C[C@H](C)O1 [Example 127, ((R)-1-(((((R)-1-(2-cyano-4-((2S,6R)-2,6-dimethylmorpholino)-4-methylpent-2-enoyl)azepan-3-yl)oxy)carbonyl)amino)-2-phenylethyl)boronic acid]
3 | 465 nM | 2 nM | C=CC(=O)N1C2CCC1(COC(=O)N[C@@H](Cc1coc3ccccc13)B(O)O)CC2 [Example 63, (R)-(1-((((7-acryloyl-7-azabicyclo[2.2.1]heptan-1-yl)methoxy)carbonyl)amino)-2-(benzofuran-3-yl)ethyl)boronic acid]
4 | 810 nM | 3.7 nM | CC(C)(C=C(C#N)C(=O)N1C[C@@H](F)[C@@H](OC(=O)N[C@@H](Cc2ccccc2)B(O)O)C1)N1CCC(F)(F)C1 [Example 125, ((R)-1-(((((3S,4R)-1-(2-cyano-4-(3,3-difluoropyrrolidin-1-yl)-4-methylpent-2-enoyl)-4-fluoropyrrolidin-3-yl)oxy)carbonyl)amino)-2-phenylethyl)boronic acid]
5 | 1830 nM | 87 nM | CCc1cccc(C[C@H](NC(=O)[C@H](COC[C@H]2CCCN2C(=O)C(C#N)=CC(C)C)NCC(F)(F)F)B(O)O)c1 [Example 30, ((R)-1-((S)-3-(((R)-1-(2-cyano-4-methylpent-2-enoyl)pyrrolidin-2-yl)methoxy)-2-((2,2,2-trifluoroethyl)amino)propanamido)-2-(3-ethylphenyl)ethyl)boronic acid]
6 | 166 nM | 26 nM | CC(C)(C)C=C(C#N)C(=O)N1CCC[C@@H]1COC[C@H](NCC(F)(F)F)C(=O)N[C@@H](Cc1ccccc1)B(O)O [Example 24, (R)-1-((S)-3-(((R)-1-(2-cyano-4,4-dimethylpent-2-enoyl)pyrrolidin-2-yl)methoxy)-2-(2,2,2-trifluoroethylamino)propanamido)-2-phenylethylboronic acid]
7 | 1950 nM | 7.7 nM | CC(C)(C=C(C#N)C(=O)N1CCC[C@H](OC(=O)N[C@@H](Cc2ccccc2)B(O)O)C1)N1CCN2C(=O)OC[C@@H]2C1 [Example 97, ((R)-1-(((((S)-1-(2-cyano-4-methyl-4-((S)-3-oxotetrahydro-3H-oxazolo[3,4-a]pyrazin-7(1H)-yl)pent-2-enoyl)piperidin-3-yl)oxy)carbonyl)amino)-2-phenylethyl)boronic acid]
8 | 1350 nM | 4.7 nM | C[C@H]1CN(C(C)(C)C=C(C#N)C(=O)N2CCCC[C@@H](OC(=O)N[C@@H](Cc3ccccc3)B(O)O)C2)C[C@H](C)O1 [Example 128, ((R)-1-(((((R)-1-(2-cyano-4-((2S,6S)-2,6-dimethylmorpholino)-4-methylpent-2-enoyl)azepan-3-yl)oxy)carbonyl)amino)-2-phenylethyl)boronic acid]
9 | 942 nM | 1.4 nM | CC(C)(C=C(C#N)C(=O)N1CCCC[C@@H](OC(=O)N[C@@H](Cc2ccccc2)B(O)O)C1)N1CCOC2(CC2)C1 [Example 133, ((R)-1-(((((R)-1-(2-cyano-4-methyl-4-(4-oxa-7-azaspiro[2.5]octan-7-yl)pent-2-enoyl)azepan-3-yl)oxy)carbonyl)amino)-2-phenylethyl)boronic acid]
10 | > 5000 nM | 7.8 nM | CC(C)(C=C(C#N)C(=O)N1CCC[C@H](OC(=O)N[C@@H](CC2=CCCC2)B(O)O)C1)N1CCOCC1 [Example 121, ((R)-1-(((((S)-1-(2-cyano-4-methyl-4-morpholinopent-2-enoyl)piperidin-3-yl)oxy)carbonyl)amino)-2-(cyclopent-1 en-1-yl)ethyl)boronic acid]
11 | 621 nM | 3.5 nM | CC(C)(C=C(C#N)C(=O)N1C[C@H](OC(=O)N[C@@H](Cc2ccccc2)B(O)O)[C@@H](F)C1)N1CCC(F)(F)C1 [Example 109, ((R)-1-(((((3S,4S)-1-(2-cyano-4-(3,3-difluoropyrrolidin-1-yl)-4-methylpent-2-enoyl)-4-fluoropyrrolidin-3-yl)oxy)carbonyl)amino)-2-phenylethyl)boronic acid]

The remaining lines, values behind:

Row | SMILES | IC50 [1] | IC50 [2]
12 | C[C@H]1CN(C(C)(C)C=C(C#N)C(=O)N2CCCC[C@@H](OC(=O)N[C@@H](Cc3ccccc3)B(O)O)C2)CCO1 [Example 130, ((R)-1-(((((R)-1-(2-cyano-4-methyl-4-((S)-2-methylmorpholino)pent-2-enoyl)azepan-3-yl)oxy)carbonyl)amino)-2-phenylethyl)boronic acid] | 2040 nM | 2.8 nM
13 | CC(C)(C=C(C#N)C(=O)N1CCO[C@H](CC(=O)N[C@@H](Cc2ccccc2)B(O)O)C1)N1CCC(F)(F)C1 [Example 58, ((R)-1-(2-((R)—4-(2-cyano-4-(3,3-difluoropyrrolidin-1-yl)-4-methylpent-2-enoyl)morpholin-2-yl)acetamido)-2-phenylethyl)boronic acid] | 139 nM | 10 nM
14 | CC(C)C=C(C#N)C(=O)N1CCC[C@@H]1COC[C@H](NCC(F)(F)F)C(=O)N[C@@H](CC(C)C)B(O)O [Example 28] | 294 nM | 46 nM
15 | C[C@@H]1CN(C(C)(C)C=C(C#N)C(=O)N2C3CCC2(COC(=O)N[C@@H](Cc2ccccc2)B(O)O)CC3)C[C@H](C)O1 [Example 114, ((R)-1-((((7-(2-cyano-4-((2S,6R)-2,6-dimethylmorpholino)-4-methylpent-2-enoyl)-7-azabicyclo[2.2.1]heptan-1-yl)methoxy)carbonyl)amino)-2-phenylethyl)boronic acid] | 1670 nM | 2.1 nM
16 | C=CC(=O)N1CC(COC(=O)N[C@@H](Cc2ccccc2)B(O)O)C1 [Example 86, (R)-(1-((((1-acryloylazetidin-3-yl)methoxy)carbonyl)amino)-2-phenylethyl)boronic acid] | 218 nM | 59.1 nM
17 | CC(C)(C=C(C#N)C(=O)N1CCCC[C@@H](OC(=O)N[C@@H](Cc2ccccc2)B(O)O)C1)N1CC2CC(C1)O2 [Example 134, ((1R)-1-(((((3R)-1-(4-(6-oxa-3-azabicyclo[3.1.1]heptan-3-yl)-2-cyano-4-methylpent-2-enoyl)azepan-3-yl)oxy)carbonyl)amino)-2-phenylethyl)boronic acid] | 1010 nM | 1.9 nM
18 | CN1CCN(C(C)(C)C=C(C#N)C(=O)N2CCC[C@H](OC(=O)N[C@@H](Cc3ccccc3)B(O)O)C2)CC1 [Example 80, ((R)-1-(((((S)-1-(2-cyano-4-methyl-4-(4-methylpiperazin-1-yl)pent-2-enoyl)piperidin-3-yl)oxy)carbonyl)amino)-2-phenylethyl)boronic acid] | 1380 nM | 3.9 nM
19 | CC(C)C=C(C#N)C(=O)NCCCC[C@H](NC(=O)[C@@H](NC(=O)C(C)C)[C@@H](C)O)C(=O)N[C@@H](CC(C)C)B(O)O [Example 9, ((R)-1-((S)-6-(2-cyano-4-methylpent-2-enamido)-2-((2S,3R)-3-hydroxy-2-isobutyramidobutanamido)hexanamido)-3-methylbutyl)boronic acid] | 9.4 nM | 8.2 nM
20 | CN(C[C@H]1CCCCN1C(=O)C(C#N)=CC(C)(C)N1CCC(F)(F)C1)C(=O)N[C@@H](Cc1ccccc1)B(O)O [Example 64] | > 5000 nM | > 5000 nM
21 | CC(C)C=C(C#N)C(=O)NCCCC[C@H](NC(=O)[C@H](C)NC(=O)C(C)C)C(=O)N[C@@H](CC(C)C)B(O)O [Example 1, ((R)-1-((S)-6-(2-cyano-4-methylpent-2-enamido)-2-((S)-2-isobutyramidopropanamido)hexanamido)-3-methylbutyl)boronic acid] | 12.1 nM | 20.9 nM
22 | CC(C)(C=C(C#N)C(=O)N1CCCC[C@@H](OC(=O)N[C@@H](Cc2ccccc2)B(O)O)C1)N1CCC(F)(F)C1 (single isomer, unassigned) [Example 105] | 1340 nM | 1.6 nM
23 | C=CC(=O)N1CC[C@@H]1COC(=O)N[C@@H](Cc1coc2ccccc12)B(O)O [Example 62, ((R)-1-(((((R)-1-acryloylazetidin-2-yl)methoxy)carbonyl)amino)-2-(benzofuran-3-yl)ethyl)boronic acid] | 126 nM | 2.3 nM
24 | CC(C)C=C(C#N)C(=O)NCCCC[C@H](NC(=O)[C@H](C)NC(=O)C(C)C)C(=O)N[C@@H](Cc1ccccc1)B(O)O [Example 4, ((R)-1-((S)-6-(2-cyano-4-methylpent-2-enamido)-2-((S)-2-isobutyramidopropanamido)hexanamido)-2-phenylethyl)boronic acid] | 23.7 nM | 14 nM
25 | CC(C)(C=C(C#N)C(=O)N1CC[C@@H]1COC(=O)N[C@@H](Cc1ccccc1)B(O)O)N1CCC(F)(F)C1 [Example 54, ((R)-1-(((((R)-1-(2-cyano-4-(3,3-difluoropyrrolidin-1-yl)-4-methylpent-2-enoyl)azetidin-2-yl)methoxy)carbonyl)amino)-2-phenylethyl)boronic acid] | 504 nM | 2.7 nM
26 | C=CC(=O)N1CCC[C@H](OC(=O)N[C@@H](Cc2ccccc2)B(O)O)C1 [Example 67, ((R)-1-(((((S)-1-acryloylpiperidin-3-yl)oxy)carbonyl)amino)-2-phenylethyl)boronic acid] | > 5000 nM | 249 nM
27 | CC(C)C=C(C#N)C(=O)N1CCC[C@@H]1COC[C@H](NCC(F)(F)F)C(=O)N[C@@H](Cc1ccccc1)B(O)O [Example 23, (R)-1-((S)-3-(((R)-1-(2-cyano-4-methylpent-2-enoyl)pyrrolidin-2-yl)methoxy)-2-(2,2,2-trifluoroethylamino)propanamido)-2-phenylethylboronic acid] | 450 nM | 35 nM
